Results taken from ChEMBL document CHEMBL1201862, “PubChem BioAssay data set” (2004).
Active and inactive are the calls of the source.

Tests used:
[1] = tested on: Streptococcus sp. 'group A'; experiment: growth inhibition of control SK(-) GAS strain, dose response, counter-screen for streptokinase expression inhibitor project, luminescence, kanamycin, BacTiterGlo, confirmation (AID 1900); assay type: functional, organism-based
[2] = cells; assay type: functional
[3] = THP-1 cell cytotoxicity, dose response, cytotoxicity control for non-replicating M. tuberculosis project (AID 489025); assay type: functional
[4] = Vero E6 cell cytotoxicity, dose response, cytotoxicity control for non-replicating M. tuberculosis project, secondary assay (AID 492998); assay type: functional, VeroE6; settings: Vero C1008
[5] = HepG2 cell cytotoxicity, dose response, cytotoxicity control for non-replicating M. tuberculosis project (AID 489018); assay type: functional; settings: Mycobacterium tuberculosis
[6] = tested on: Streptococcus; experiment: Group A Streptococcus viability loss, dose response, counter-screen for streptokinase expression inhibitor project, luminescence, BacTiterGlo (AID 1915); assay type: functional, organism-based;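 note: potency for reduction of bacterial viability or growth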
[7] = target: Glyceraldehyde-3-phosphate dehydrogenase (Homo sapiens, UniProt P04406)
Sequence of Glyceraldehyde-3-phosphate dehydrogenase (P04406 whole entry): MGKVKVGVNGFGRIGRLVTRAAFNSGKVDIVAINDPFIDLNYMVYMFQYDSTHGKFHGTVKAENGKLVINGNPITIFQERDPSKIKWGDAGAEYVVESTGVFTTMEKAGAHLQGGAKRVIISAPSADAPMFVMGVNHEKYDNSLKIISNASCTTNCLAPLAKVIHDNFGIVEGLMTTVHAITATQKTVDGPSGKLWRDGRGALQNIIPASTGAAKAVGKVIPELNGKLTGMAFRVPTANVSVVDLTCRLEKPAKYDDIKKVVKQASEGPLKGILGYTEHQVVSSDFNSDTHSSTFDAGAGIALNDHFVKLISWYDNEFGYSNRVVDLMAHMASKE

[8] = target: T1, Alkaline phosphatase, tissue-nonspecific isozyme (Homo sapiens, UniProt P05186); experiment: human TNAP enzyme inhibitors, SAR follow-up, biochemical, luminescent, dose response (AID 1056)
T1 sequence (P05186 whole entry): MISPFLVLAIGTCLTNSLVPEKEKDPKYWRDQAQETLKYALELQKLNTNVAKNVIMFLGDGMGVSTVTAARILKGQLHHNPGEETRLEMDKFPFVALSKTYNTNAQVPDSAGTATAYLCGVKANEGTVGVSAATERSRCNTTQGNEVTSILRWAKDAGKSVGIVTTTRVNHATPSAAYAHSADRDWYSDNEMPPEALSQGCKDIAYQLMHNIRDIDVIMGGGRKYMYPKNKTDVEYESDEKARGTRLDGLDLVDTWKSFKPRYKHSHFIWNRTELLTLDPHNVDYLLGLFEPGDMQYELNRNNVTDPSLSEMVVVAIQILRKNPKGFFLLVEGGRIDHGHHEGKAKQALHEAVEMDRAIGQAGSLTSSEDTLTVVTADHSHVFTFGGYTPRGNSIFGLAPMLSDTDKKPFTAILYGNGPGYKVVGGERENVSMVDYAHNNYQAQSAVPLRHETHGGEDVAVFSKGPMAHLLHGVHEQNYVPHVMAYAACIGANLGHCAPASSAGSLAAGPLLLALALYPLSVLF

[9] = target: Alkaline phosphatase, placental type (Homo sapiens, UniProt P05187); experiment: PLAP enzyme inhibitors, confirmation, biochemical, luminescence (AID 1512); assay type: functional
Sequence of Alkaline phosphatase, placental type (P05187 whole entry): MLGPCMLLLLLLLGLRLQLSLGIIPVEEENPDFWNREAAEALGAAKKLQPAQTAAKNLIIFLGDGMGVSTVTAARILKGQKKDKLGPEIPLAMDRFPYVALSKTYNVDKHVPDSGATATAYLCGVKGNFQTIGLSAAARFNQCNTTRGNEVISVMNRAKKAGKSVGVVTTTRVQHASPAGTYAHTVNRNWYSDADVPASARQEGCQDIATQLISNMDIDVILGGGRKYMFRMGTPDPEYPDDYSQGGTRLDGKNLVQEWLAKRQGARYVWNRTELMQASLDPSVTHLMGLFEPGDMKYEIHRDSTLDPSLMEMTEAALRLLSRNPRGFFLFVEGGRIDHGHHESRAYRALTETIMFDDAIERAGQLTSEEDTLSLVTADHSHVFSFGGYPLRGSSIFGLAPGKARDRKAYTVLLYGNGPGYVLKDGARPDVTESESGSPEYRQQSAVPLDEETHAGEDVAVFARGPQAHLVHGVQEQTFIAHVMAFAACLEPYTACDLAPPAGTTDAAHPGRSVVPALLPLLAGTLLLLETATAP

[10] = target: Troponin, cardiac muscle (Homo sapiens, UniProt P19429+P45379+P63316); experiment: Fluorescence-based biochemical high throughput dose response assay for activators of the calcium sensitivity of cardiac Regulated Thin Filaments (RTF). [Related pubchem assays (depositor defined):AID493008, AID493018, AID504382, AID504383]; assay type: protein-complex assay
[11] = target: T2, Protein skinhead-1 (Caenorhabditis elegans, UniProt P34707); assay type: functional
T2 sequence (P34707 whole entry): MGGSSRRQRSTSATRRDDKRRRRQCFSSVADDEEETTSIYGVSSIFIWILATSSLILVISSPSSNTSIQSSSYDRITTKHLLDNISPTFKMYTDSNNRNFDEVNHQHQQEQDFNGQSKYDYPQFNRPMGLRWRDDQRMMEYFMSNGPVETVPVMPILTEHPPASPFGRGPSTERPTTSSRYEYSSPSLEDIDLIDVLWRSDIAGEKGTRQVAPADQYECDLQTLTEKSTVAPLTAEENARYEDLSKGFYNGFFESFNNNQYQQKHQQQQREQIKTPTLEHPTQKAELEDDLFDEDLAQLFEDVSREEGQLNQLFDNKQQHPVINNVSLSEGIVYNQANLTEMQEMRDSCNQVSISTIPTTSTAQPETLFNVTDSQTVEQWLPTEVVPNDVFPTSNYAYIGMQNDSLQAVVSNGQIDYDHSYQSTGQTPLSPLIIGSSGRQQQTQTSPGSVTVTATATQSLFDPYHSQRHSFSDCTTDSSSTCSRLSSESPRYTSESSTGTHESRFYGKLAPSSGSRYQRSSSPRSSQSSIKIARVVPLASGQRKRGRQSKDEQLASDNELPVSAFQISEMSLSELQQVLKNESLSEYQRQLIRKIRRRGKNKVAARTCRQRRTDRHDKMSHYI

[12] = C. albicans growth with fluconazole, confirmation, fluorescence, retest (AID 2467); assay type: functional, cell-based
[13] = NIH-3T3 fibroblast cytotoxicity, dose response, cytotoxicity control, cell-based, fluorescence, Alamar Blue, secondary assay (AID 2327); assay type: functional;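 note: NIH-3T3 mouse fibroblasts cultured with fluconazole at 8 µg/mL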
[14] = target: G-protein coupled receptor 55 (Homo sapiens, UniProt Q9Y2T6); experiment: GPR55 agonists via beta-arrestin recruitment, primary screen, imaging, U2OS cells, beta-arrestin-GFP redistribution (AID 1961); assay type: functional
Sequence of G-protein coupled receptor 55 (Q9Y2T6 whole entry): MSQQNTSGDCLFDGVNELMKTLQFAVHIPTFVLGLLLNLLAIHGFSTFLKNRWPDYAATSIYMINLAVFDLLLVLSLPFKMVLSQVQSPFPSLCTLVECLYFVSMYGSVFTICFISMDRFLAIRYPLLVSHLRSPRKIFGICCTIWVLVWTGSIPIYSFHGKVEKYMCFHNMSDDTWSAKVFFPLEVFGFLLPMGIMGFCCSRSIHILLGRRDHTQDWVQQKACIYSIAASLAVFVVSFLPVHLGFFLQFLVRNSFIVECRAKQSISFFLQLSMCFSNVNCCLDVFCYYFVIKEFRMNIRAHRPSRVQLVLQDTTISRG

[15] = tested on: H4; experiment: Luminescence Cell-Based Dose Response HTS to Identify Activators of 5'UTR Stem-Loop Driven Prion Protein mRNA Translation in H4 Neuroglioblastoma Cells. [Related pubchem assays: 1829 (Project Summary), 1814 (Primary HTS)]; assay type: functional; settings: Homo sapiens
[16] = target: G-protein coupled receptor 35 (Homo sapiens, UniProt Q9HC97); experiment: GPR35 antagonists blocking zaprinast-driven arrestin recruitment, primary screen, imaging, U2OS, beta-arrestin-GFP, zaprinast agonist (AID 2058); assay type: functional;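 note: antagonist potency meaning inhibition of agonist-induced arrestin redistribution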
Sequence of G-protein coupled receptor 35 (Q9HC97 whole entry): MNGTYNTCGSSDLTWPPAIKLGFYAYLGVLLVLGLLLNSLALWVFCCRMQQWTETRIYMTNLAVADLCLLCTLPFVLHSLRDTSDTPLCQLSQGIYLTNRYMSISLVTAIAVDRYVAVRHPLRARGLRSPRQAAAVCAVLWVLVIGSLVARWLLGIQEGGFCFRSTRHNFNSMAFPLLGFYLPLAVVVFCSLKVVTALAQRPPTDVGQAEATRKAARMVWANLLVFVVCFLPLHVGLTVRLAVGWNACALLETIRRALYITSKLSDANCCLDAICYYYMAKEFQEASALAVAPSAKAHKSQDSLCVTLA

[17] = target: T3, Short transient receptor potential channel 4 (Mus musculus, UniProt Q9QUQ5); experiment: mouse TRPC4 channel activators, dose response, cell-based, HEK293 TRPC4/mu-opioid, Fluo-4 calcium (AID 434937); assay type: functional
T3 sequence (Q9QUQ5 whole entry): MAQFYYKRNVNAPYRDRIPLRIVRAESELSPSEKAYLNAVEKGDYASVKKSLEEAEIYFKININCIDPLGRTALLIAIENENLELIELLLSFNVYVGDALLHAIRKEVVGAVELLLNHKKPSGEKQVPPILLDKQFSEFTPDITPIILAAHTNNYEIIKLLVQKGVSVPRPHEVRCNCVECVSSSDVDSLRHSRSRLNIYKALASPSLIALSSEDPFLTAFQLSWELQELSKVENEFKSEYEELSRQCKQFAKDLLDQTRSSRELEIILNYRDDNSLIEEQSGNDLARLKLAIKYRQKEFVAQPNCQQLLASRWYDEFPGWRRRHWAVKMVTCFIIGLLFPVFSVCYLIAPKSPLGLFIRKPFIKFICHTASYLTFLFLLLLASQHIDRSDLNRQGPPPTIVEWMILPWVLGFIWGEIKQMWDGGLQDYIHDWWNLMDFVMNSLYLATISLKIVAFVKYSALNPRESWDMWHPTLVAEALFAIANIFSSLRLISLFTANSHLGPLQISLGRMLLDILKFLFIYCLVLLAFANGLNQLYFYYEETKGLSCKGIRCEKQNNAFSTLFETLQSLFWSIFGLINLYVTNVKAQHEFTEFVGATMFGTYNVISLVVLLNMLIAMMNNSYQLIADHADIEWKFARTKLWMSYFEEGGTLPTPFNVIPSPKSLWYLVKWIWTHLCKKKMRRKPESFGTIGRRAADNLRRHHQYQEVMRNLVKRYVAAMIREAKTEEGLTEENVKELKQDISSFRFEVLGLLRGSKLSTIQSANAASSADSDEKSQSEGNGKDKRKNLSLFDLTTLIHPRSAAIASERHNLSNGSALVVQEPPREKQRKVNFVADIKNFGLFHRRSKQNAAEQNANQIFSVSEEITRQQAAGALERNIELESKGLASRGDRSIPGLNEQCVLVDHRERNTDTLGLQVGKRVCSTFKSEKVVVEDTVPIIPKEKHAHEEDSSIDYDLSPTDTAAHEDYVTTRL

[18] = Luminescence Cell-Based Dose Response HTS to Identify Activators of Luciferase Translation or Activity in H4 […] Cells. [Related pubchem assays: 1829 (Project Summary), 1814 (Primary HTS)]; assay type: functional
[19] = Luminescence Cell-Based Dose Confirmation HTS to Identify Activators of 5'UTR Stem-Loop Driven Alpha-Synuclein mRNA Translation in H4 Neuroglioblastoma Cells. [Related pubchem assays: 1829 (Project Summary), 1814 (Primary HTS)]; assay type: functional
[20] = target: Trypsin (Sus scrofa, UniProt P00761); experiment: porcine trypsin inhibitors, dose response, selectivity assay for Rce1 protease inhibitor project, biochemical, quenched peptide fluorescence, cherry-pick (AID 488789)
Sequence of Trypsin (P00761 whole entry): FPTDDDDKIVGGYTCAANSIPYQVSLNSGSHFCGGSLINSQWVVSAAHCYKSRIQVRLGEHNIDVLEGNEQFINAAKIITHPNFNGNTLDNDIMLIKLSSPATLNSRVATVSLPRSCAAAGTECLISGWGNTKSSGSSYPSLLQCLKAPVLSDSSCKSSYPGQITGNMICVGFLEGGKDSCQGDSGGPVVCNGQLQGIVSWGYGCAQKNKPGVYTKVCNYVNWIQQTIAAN

[21] = target: T4, CAAX prenyl protease 2 (Saccharomyces cerevisiae S288c, UniProt Q03530); assay type: biochemical
T4 sequence (Q03530 whole entry): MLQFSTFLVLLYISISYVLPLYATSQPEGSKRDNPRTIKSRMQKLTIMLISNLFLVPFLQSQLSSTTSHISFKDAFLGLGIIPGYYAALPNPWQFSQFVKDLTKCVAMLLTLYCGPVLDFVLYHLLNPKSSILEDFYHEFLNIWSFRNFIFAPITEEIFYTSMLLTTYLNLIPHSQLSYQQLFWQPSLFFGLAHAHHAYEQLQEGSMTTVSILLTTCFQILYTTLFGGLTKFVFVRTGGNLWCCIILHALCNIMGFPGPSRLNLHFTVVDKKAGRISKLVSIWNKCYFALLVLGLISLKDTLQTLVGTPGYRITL

[22] = target: Beta-galactosidase (Escherichia coli, UniProt Q8VNN2); experiment: Dose response counterscreen for EBI2 assay utilizing the enzyme, b-galactosidase.; assay type: functional
Sequence of Beta-galactosidase (Q8VNN2 whole entry): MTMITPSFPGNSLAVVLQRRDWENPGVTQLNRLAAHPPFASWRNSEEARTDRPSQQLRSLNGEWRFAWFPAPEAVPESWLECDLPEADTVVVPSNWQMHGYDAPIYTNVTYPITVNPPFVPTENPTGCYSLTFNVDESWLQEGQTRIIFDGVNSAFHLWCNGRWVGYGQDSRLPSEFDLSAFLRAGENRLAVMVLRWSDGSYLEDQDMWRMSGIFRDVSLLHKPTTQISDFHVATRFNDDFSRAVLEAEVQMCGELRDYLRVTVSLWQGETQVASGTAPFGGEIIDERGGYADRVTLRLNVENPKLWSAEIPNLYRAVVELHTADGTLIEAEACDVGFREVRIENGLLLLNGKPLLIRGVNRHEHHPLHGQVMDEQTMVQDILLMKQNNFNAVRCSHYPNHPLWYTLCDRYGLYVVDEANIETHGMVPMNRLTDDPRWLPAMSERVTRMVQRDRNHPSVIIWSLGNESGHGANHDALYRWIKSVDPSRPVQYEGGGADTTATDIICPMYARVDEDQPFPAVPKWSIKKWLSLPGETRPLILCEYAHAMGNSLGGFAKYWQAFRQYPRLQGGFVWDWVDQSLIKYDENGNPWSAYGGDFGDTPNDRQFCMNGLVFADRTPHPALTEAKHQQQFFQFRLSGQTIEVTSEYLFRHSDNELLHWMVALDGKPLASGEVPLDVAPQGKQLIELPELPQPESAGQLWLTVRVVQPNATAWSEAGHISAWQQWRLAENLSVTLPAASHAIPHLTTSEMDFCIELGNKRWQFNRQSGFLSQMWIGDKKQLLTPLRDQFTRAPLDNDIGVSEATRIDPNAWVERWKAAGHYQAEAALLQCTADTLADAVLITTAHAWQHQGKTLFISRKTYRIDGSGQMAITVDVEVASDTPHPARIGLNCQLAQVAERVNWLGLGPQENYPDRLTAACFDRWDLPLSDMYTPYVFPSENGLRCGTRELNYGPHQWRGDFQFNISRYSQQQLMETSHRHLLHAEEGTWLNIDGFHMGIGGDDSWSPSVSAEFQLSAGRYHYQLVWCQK

[23] = target: T5, Heat shock factor protein 1 (Mus musculus, UniProt P38532); experiment: HSF1 potentiators in luciferase reporter cells, confirmation, cell-based, NIH3T3, luminescence, dose retest (AID 435004); assay type: functional;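 note: stress induced by proteasome inhibitor MG132 added 30 min after compound; luciferase reporter driven by HSF1 response element in NIH3T3 cells; actives raise luminescence as potentiators of the MG132 stress response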
T5 sequence (P38532 whole entry): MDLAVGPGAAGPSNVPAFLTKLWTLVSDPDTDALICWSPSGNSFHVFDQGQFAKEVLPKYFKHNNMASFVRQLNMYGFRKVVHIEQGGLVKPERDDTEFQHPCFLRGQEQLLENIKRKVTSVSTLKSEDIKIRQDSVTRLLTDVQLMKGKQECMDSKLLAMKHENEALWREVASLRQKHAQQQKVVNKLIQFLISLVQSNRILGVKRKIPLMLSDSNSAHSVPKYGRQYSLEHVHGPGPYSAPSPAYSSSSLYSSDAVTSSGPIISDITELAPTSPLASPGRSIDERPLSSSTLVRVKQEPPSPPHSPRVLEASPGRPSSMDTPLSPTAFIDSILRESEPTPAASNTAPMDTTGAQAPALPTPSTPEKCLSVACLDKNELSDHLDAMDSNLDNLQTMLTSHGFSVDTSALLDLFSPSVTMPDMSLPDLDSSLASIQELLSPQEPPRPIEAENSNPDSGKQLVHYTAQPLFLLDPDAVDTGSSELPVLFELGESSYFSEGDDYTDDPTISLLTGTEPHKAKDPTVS

[24] = target: T6, Estrogen receptor (Homo sapiens, UniProt P03372);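 note: potency for inhibiting coactivator peptide recruitment to the receptor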
T6 sequence (P03372 whole entry): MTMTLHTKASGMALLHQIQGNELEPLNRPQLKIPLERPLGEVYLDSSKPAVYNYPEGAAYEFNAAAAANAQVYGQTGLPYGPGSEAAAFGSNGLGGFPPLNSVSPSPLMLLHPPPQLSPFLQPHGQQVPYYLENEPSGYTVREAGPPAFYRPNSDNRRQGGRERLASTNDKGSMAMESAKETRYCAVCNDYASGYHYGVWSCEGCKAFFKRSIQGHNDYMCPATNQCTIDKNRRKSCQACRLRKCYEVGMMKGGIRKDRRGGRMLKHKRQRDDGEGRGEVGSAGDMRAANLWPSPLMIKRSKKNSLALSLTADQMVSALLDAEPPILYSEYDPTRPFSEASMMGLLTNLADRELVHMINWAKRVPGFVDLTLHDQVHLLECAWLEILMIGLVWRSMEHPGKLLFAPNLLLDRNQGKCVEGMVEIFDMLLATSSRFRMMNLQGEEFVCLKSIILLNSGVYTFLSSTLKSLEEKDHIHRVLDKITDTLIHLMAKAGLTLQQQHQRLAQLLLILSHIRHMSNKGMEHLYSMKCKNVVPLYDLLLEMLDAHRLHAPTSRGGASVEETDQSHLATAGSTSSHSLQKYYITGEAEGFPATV

CCOC(=O)Cc1c(C)nc2c(-c3cccc(Br)c3)cnn2c1O
EC50 [1]: 3.46 µM (active) | IC50 [2]: 3.08 µM (active) | CC50 [3]: 11.9 µM (active) | CC50 [4]: 8.15 µM (active) | CC50 [5]: 16.4 µM (active) | EC50 [6]: 6.07 µM (active)

COc1ccc(OC)c(NS(=O)(=O)c2cccc3cccnc23)c1
IC50 [7]: > 100 µM (not active) | IC50 [8]: > 100 µM (inactive)

O=C(CN1CCCCC1)c1ccc(O)c(O)c1
IC50 [8]: 43.2 µM (active) | IC50 [9]: 67.5 µM (active)

CCN(CC)c1ccc(/C=c2\sc3nc4ccccc4n3c2=O)c(O)c1
EC50 [10]: 2.78 µM (active) | IC50 [11]: > 100 µM (inactive)

COc1cc(OC)cc(C(=O)Oc2c(CN3CCOCC3)cc(Cl)c3cccnc23)c1
EC50 [12]: 2.94 µM (active) | IC50 [2]: 15.4 µM (active) | CC50 [3]: 7.27 µM (active) | CC50 [4]: 3.74 µM (active) | EC50 [13]: > 150 µM (inconclusive) | CC50 [5]: 17 µM (active)

Cc1ccccc1OCCC(=O)Nc1cc(S(=O)(=O)N2CCOCC2)ccc1OC(C)C
EC50 [14]: 4.27 µM (active)

CN(C)c1ccc(-c2sc(Nc3ccccc3)n[n+]2-c2ccc(F)cc2)cc1
EC50 [15]: > 120 µM (not active) | IC50 [16]: 1.33 µM (active) | EC50 [17]: 10.6 µM (active) | EC50 [18]: 17.8 µM (active) | EC50 [19]: > 120 µM (not active)

COc1ccc(C(C(=O)NC2CCCCC2)N(C(=O)c2snc(C(N)=O)c2N)c2ccc(OC)cc2OC)cc1 (stereo not drawn)
AC50 [20]: 21.6 µM (active) | AC50 [21]: 22.1 µM (active) | IC50 [22]: > 80 µM (inactive)

O=C1CCN(Cc2ccccc2)CCN1[C@H](CSc1ccccc1)Cc1ccccc1
AC50 [21]: 13.9 µM (active)

CCOC(=O)c1sc2nc(C)nc(SCC(=O)NC3CCS(=O)(=O)C3)c2c1C (stereo not drawn)
EC50 [10]: > 71.5 µM (inactive) | EC50 [23]: > 260 µM (inactive)

O=S(=O)(/N=C(\Sc1ccc(Cl)cc1)c1ccccc1)c1ccccc1
IC50 [24]: > 50 µM (not active)

O=C(Nc1nc2ccccc2s1)c1ccc(N2CCCCC2)c([N+](=O)[O-])c1
IC50 [16]: 1.12 µM (active)

COc1ccc(C2CC(c3c(O)nc4ccc(Cl)cc4c3-c3ccccc3)=NN2S(C)(=O)=O)cc1OC (stereo not drawn)
IC50 [24]: 12.4 µM (active)
